In US20170363616A1, “PATTERNED NEUROMUSCULAR JUNCTIONS AND METHODS OF USE” (Los Alamos National Security, LLC, priority 2014, published 2017):

How the values were obtained:
[1] = system: NSC-34 motor neuron cells; assay: Differentiation of NSC-34 motor neuron cells (neurite outgrowth); assay type: cell-based, mouse; conditions: IGF-1 added to Neurobasal differentiation media
Experimental: NSC-34 cells (Cellutions, Cat. No. CLU 140) are a hybrid cell line produced by fusion of motor neuron enriched embryonic mouse spinal cord cells with mouse neuroblastoma, resulting in a motor neuron-like cell. NSC-34 cells were grown in high glucose DMEM with 10% FBS and 1% antibiotics. […] In some examples, NSC-34 cells were cultured in Neurobasal medium with 50-100 ng/ml IGF-1. Cells were imaged with a fluorescent microscope and images were quantified using ImageJ 1.47d with the NeuronJ plugin.

[2] = system: C2C12 skeletal myoblasts; assay: Differentiation of C2C12 myoblasts to myotubes on graphene films or SiO2; assay type: cell-based, mouse
Experimental: C2C12 skeletal myoblasts (ATCC Cat. No. CRL 1772) were cultured on graphene films or SiO2 in high glucose DMEM supplemented with 10% fetal bovine serum (FBS) and 1% antibiotics. […] Cells were cultured for 5 days and stained with primary antibody MF20 (myosin heavy chain, MHC) overnight at 4° C., followed by goat anti-mouse secondary antibody and the nuclear stain 4′, 6-diamidino-2-phenylindole (DAPI) for 2 hours at 37° C. Cells were imaged with a fluorescent microscope and images were quantified using ImageJ 1.47d.
Fusion index was calculated as the ratio of the number of nuclei in myocytes with two or more nuclei versus the total number of nuclei. Cell density was determined by counting the number of nuclei in a particular area. Statistical analysis was performed using one-way analysis of variance and values are reported as mean±standard error of the mean.

[3] = IGF-1 (50 ng/ml) added to differentiation medium, graphene films, vs differentiation medium alone

Q: Which “neurite length per neuron” value [1] does the source give for insulin-like growth factor-1 [IGF-1] here?
A: significantly increased

Q: And the “number of neurites per neuron” value [1]?
A: did not affect

Q: What about the “sum of neurite length” value [1] of the same substance?
A: significantly increased

Q: And the cell density [2, 3]?
A: significantly increased

Q: And the fusion index [2, 3]?
A: significantly increased

Q: What about the myotube formation [2, 3] of the same substance?
A: significantly increased

Q: What about the myotube formation ([2]; increasing the amount of IGF-1 in the differentiation medium from 1-500 ng/ml) of the same substance?
A: increased myotube formation
